Columns and labels:
[1] = target: recombinant human EGFR L858R/C797S double mutant protein (Homo sapiens (Human), UniProt P00533, C797S/L858R); assay: Biological Activity Assay B: biochemical assay against EGFR L858R/C797S protein (EGFR LR/CS)
Description: In Row A of a 384-well polypropylene plate, was added 48 μL of DMSO. In wells A1 and A24, were added 12 μL of DMSO. […] To a well in Row A were added 12 μL of each 10 mM test compound stock (100% DMSO). […] The final intermediate dilution plate contained 4×16-point compound serial dilutions in assay buffer. The DMSO concentration was 10%. The intermediate compound dilution plate was transferred to the Bravo and the “5 uL dispense into ARP.pro” protocol was run. To the black low volume assay ready plates, were added 5 μL of 40 uM Phosphosens peptide sensor/4 mM ATP working solution to each well. […] To column 24, was added 10 μL of assay buffer. The final DMSO concentration was 2.5%. […] The plates were sealed with the TopSeal-A Plus plate seals. […] Set for 90 cycles with 120 second interval. […] The slope of each curve was constructed using Dotmatics in each well, and each IC50s was calculated using a 4-parameter fit model.

[2] = target: recombinant human EGFR exon 19 deletion/C797S double mutant protein (Homo sapiens (Human), UniProt P00533, C797S/DEL746-750); assay: Biological Activity Assay C: biochemical assay against EGFR exon 19 deletion/C797S protein (EGFR d19/CS)
Method in brief: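 IC50 values were fitted with a 4-parameter model to reaction slopes taken from 90 kinetic reads spaced 120 s apart. The Phosphosens sensor/ATP working solution was 40 uM/4 mM, and compound was dosed as 16-point dilutions at 2.5% final DMSO.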

Ba/F3_EGFR WT cells = assay: Biological Activity Assay D: BaF3 cell proliferation assay, EGFR wild-type (BaF3 WT); assay type: cell-based; details: Ba/F3 EGFR; Ba/F3_EGFR WT cells, ~72 hours, CellTiter-Glo; read-out: BaF3 WT IC50
BaF3_EGFR LR/CS cells = assay: Biological Activity Assay D: BaF3 cell proliferation assay, EGFR L858R/C797S mutant (BaF3 LR/CS); assay type: cell-based; details: Ba/F3 EGFR; BaF3_EGFR LR/CS cells, ~72 hours, CellTiter-Glo; read-out: BaF3 LR/CS IC50
BaF3_EGFR d19/CS cells = assay: Biological Activity Assay D: BaF3 cell proliferation assay, EGFR exon 19 deletion/C797S (BaF3 d19/CS); assay type: cell-based; details: Ba/F3 EGFR; BaF3_EGFR d19/CS cells, ~72 hours, CellTiter-Glo; read-out: BaF3 d19/CS IC50

Sequence of recombinant human EGFR L858R/C797S double mutant protein (P00533 25-1210 C797S/L858R): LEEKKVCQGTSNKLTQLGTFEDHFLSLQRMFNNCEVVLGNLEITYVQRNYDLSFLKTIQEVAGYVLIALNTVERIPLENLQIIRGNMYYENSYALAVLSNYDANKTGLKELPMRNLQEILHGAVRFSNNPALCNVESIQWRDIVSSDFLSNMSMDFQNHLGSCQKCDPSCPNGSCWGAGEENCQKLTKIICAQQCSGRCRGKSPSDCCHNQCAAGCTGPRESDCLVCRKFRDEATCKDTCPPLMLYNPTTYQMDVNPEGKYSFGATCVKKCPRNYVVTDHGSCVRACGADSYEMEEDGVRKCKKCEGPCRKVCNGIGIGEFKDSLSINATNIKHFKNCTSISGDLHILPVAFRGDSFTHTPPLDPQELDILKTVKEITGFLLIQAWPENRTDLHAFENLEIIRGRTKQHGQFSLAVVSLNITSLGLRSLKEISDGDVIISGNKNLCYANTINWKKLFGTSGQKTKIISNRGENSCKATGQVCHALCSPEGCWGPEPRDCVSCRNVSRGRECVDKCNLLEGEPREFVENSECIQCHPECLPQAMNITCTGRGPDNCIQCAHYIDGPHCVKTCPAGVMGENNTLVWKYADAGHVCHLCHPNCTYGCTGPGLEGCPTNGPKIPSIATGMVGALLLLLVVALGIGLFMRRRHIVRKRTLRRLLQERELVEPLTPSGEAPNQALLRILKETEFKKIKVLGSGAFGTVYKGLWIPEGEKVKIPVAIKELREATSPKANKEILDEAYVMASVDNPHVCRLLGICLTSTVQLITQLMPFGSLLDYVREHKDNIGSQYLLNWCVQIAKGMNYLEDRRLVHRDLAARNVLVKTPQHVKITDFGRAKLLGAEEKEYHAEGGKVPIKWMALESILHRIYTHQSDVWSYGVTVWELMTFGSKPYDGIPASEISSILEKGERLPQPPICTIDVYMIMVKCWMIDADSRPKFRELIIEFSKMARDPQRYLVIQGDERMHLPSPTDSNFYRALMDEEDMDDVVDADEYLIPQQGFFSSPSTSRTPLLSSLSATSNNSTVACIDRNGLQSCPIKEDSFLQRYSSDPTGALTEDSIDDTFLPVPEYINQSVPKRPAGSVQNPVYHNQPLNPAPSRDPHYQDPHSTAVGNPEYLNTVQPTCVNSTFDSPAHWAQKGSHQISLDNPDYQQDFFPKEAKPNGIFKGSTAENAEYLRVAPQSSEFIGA
Sequence of recombinant human EGFR exon 19 deletion/C797S double mutant protein (P00533 other isoform, or with tags, fused parts or gaps C797S/del 1-668/del 746-750 limits assumed): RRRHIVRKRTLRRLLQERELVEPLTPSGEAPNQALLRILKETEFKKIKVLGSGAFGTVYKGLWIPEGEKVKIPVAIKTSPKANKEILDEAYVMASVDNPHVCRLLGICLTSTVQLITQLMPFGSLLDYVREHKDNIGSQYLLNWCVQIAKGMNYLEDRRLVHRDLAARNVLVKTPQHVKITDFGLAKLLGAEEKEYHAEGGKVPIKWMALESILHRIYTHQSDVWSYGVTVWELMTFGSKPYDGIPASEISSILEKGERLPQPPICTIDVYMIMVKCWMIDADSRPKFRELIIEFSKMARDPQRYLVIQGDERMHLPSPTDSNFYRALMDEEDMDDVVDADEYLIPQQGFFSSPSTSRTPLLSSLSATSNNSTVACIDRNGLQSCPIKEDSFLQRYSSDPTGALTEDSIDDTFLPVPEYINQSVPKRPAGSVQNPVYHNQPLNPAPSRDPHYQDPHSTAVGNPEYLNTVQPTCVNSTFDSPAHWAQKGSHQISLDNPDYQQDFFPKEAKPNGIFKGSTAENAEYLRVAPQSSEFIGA

IC50 [1] [nM] | IC50 [2] [nM] | IC50 (Ba/F3_EGFR WT cells) [nM] | IC50 (BaF3_EGFR LR/CS cells) [nM] | IC50 (BaF3_EGFR d19/CS cells) [nM] | Compound
0.39 | 0.24 | 2240 | 73.2 | 40 | O[C@H]1C[C@H](Cn2cc(-c3ncnc4oc(-c5ccccc5)cc34)c(-c3ccc(F)cc3)n2)C1 [Example 43, (1r,3r)-3-{[3-(4-Fluorophenyl)-4-(6-phenylfuro[2,3-d]pyrimidin-4-yl)-1H-pyrazol-1-yl]methyl}cyclobutan-1-ol]
0.328 | 0.346 | 681 | 7.9 | 11.5 | N#CCCn1cc(-c2ncnc3oc(-c4ccccc4)cc23)c(-c2ccc(F)cc2)n1 [Example 70, 3-[3-(4-Fluorophenyl)-4-(6-phenylfuro[2,3-d]pyrimidin-4-yl)-1H-pyrazol-1-yl]propanenitrile]
0.462 | 0.538 | 2130 | 122 | 40.8 | O=S1(=O)CCC(Cn2cc(-c3ncnc4oc(-c5ccccc5)cc34)c(-c3ccc(F)cc3)n2)C1 (racemic) [Example 53, 3-{[3-(4-fluorophenyl)-4-(6-phenylfuro[2,3-d]pyrimidin-4-yl)-1H-pyrazol-1-yl]methyl}-1λ6-thiolane-1,1-dione]
0.69 | 0.33 | 1380 | 68.7 | 83.1 | CC(C)(O)Cn1cc(-c2ncnc3oc(-c4ccccc4)cc23)c(-c2ccccc2)n1 [Example 110, 2-Methyl-1-[3-phenyl-4-(6-phenylfuro[2,3-d]pyrimidin-4-yl)-1H-pyrazol-1-yl]propan-2-ol]
0.33 | 0.34 | 1190 | 39.2 | 79.4 | O=S1(=O)CC[C@@H](Cn2cc(-c3ncnc4oc(-c5ccccc5)cc34)c(-c3ccc(F)cc3)n2)C1 (single isomer, unassigned) [Example 97]
1.36 | 1.61 | 5180 | 139 | 72.2 | CC(C)(C(N)=O)n1cc(-c2ncnc3oc(-c4ccccc4)cc23)c(-c2ccc(F)cc2)n1 [Example 77, 2-[3-(4-Fluorophenyl)-4-(6-phenylfuro[2,3-d]pyrimidin-4-yl)-1H-pyrazol-1-yl]-2-methylpropanamide]
0.41 | 0.31 | 703 | 31.6 | 110 | O=S1(=O)CCCC(Cn2cc(-c3ncnc4oc(-c5ccccc5)cc34)c(-c3ccc(F)cc3)n2)C1 (racemic) [Example 115, 3-{[3-(4-Fluorophenyl)-4-(6-phenylfuro[2,3-d]pyrimidin-4-yl)-1H-pyrazol-1-yl]methyl}-1λ6-thiane-1,1-dione]
6.14 | 5.19 | 1920 | 161 | 147 | CS(=O)(=O)n1cc(-c2ncnc3oc(-c4ccccc4)cc23)c(-c2ccc(F)cc2)n1 [Example 39, 4-[3-(4-fluorophenyl)-1-(methanesulfonyl)-1H-pyrazol-4-yl]-6-phenylfuro[2,3-d]pyrimidine]
16.8 | 10.3 | 7390 | 689 | 1290 | CC(C)(O)CCc1nc(-c2ccc(F)cc2)c(-c2ncnc3oc(-c4ccccc4)nc23)o1 [Example 57, 4-[4-(4-fluorophenyl)-5-(2-phenyl[1,3]oxazolo[5,4-d]pyrimidin-7-yl)-1,3-oxazol-2-yl]-2-methylbutan-2-ol]
0.58 | 0.39 | 1860 | 27.5 | 33.8 | Fc1ccc(-c2nn(C3CCOC3)cc2-c2ncnc3oc(-c4ccccc4)cc23)cc1 (racemic) [Example 85, 4-[3-(4-Fluorophenyl)-1-(oxolan-3-yl)-1H-pyrazol-4-yl]-6-phenylfuro[2,3-d]pyrimidine]
0.389 | 0.317 | 2160 | 41.1 | 21.1 | CC(C)(O)Cn1cc(-c2ncnc3oc(-c4ccccc4)cc23)c(-c2ccc(F)cc2)n1 [Example 46, 1-[3-(4-Fluorophenyl)-4-(6-phenylfuro[2,3-d]pyrimidin-4-yl)-1H-pyrazol-1-yl]-2-methylpropan-2-ol]
0.94 | 0.7 | 2020 | 45.5 | 31 | Fc1ccc(-c2nn(C3CCOCC3)cc2-c2ncnc3oc(-c4ccccc4)cc23)cc1 [Example 76, 4-[3-(4-Fluorophenyl)-1-(oxan-4-yl)-1H-pyrazol-4-yl]-6-phenylfuro[2,3-d]pyrimidine]
6.38 | 3.25 |  | 143 | 388 | Fc1ccc(-c2nn(C3COC3)cc2-c2ncnc3oc(-c4ccccc4)nc23)cc1 [Example 80, 7-[3-(4-fluorophenyl)-1-(oxetan-3-yl)-1H-pyrazol-4-yl]-2-phenyl[1,3]oxazolo[5,4-d]pyrimidine]
5.49 | 2.25 |  | 203 | 723 | OCCCn1cc(-c2ncnc3sc(-c4ccccc4)cc23)c(-c2ccc(F)cc2)n1 [Example 68, 3-[3-(4-fluorophenyl)-4-(6-phenylthieno[2,3-d]pyrimidin-4-yl)-1H-pyrazol-1-yl]propan-1-ol]
 | 0.12 | 633 | 8.82 | 17.1 | O[C@H]1C[C@@H](n2cc(-c3ncnc4oc(-c5ccccc5)cc34)c(-c3ccc(F)cc3)n2)C1 [Example 120, (1s,3s)-3-(3-(4-Fluorophenyl)-4-(6-phenylfuro[2,3-d]pyrimidin-4-yl)-1H-pyrazol-1-yl)cyclobutan-1-ol]
 | 0.106 | 476 | 8.89 | 5.64 | Cc1nn(C)cc1-c1cc2c(-c3cn([C@H]4C[C@H](C#N)C4)nc3-c3ccc(F)cc3)ncnc2o1 [Example 279, (1r,3r)-3-{4-[6-(1,3-dimethyl-1H-pyrazol-4-yl)furo[2,3-d]pyrimidin-4-yl]-3-(4-fluorophenyl)-1H-pyrazol-1-yl}cyclobutane-1-carbonitrile]
 | 0.1 | 498 | 4.44 | 14.4 | Cn1cnc(-c2cc3c(-c4cn([C@H]5C[C@@H](S(C)(=O)=O)C5)nc4-c4ccc(F)cc4)ncnc3o2)c1 [Example 259, 4-{3-(4-fluorophenyl)-1-[(1s,3s)-3-(methanesulfonyl)cyclobutyl]-1H-pyrazol-4-yl}-6-(1-methyl-1H-imidazol-4-yl)furo[2,3-d]pyrimidine]
 | 0.72 | 703 | 17.9 | 51.9 | C[C@H]1C[C@@H](n2cc(-c3ncnc4oc(-c5ccccc5)cc34)c(-c3ccc(F)cc3)n2)CN1S(C)(=O)=O [Example 198, 4-{3-(4-fluorophenyl)-1-[(3R,5S)-1-(methanesulfonyl)-5-methylpyrrolidin-3-yl]-1H-pyrazol-4-yl}-6-phenylfuro[2,3-d]pyrimidine]
 | 3.26 | 4390 | 140 | 633 | Fc1ccc(-c2nn(C3CCCCC3(F)F)cc2-c2ncnc3oc(-c4ccccc4)cc23)cc1 (centres unmarked) [Example 207, 4-[1-(2,2-difluorocyclohexyl)-3-(4-fluorophenyl)-1H-pyrazol-4-yl]-6-phenylfuro[2,3-d]pyrimidine]
 | 0.33 | 710 | 20.7 | 51.8 | CC1(C)C[C@H](Cn2cc(-c3ncnc4oc(-c5ccccc5)cc34)c(-c3ccc(F)cc3)n2)O1 (single isomer, unassigned) [Example 221]
 | 10.2 | 8130 | 288 | 1220 | Fc1ccc(-c2nn(CC3CCC(F)(F)CC3)cc2-c2ncnc3oc(-c4ccccc4)cc23)cc1 [Example 204, 4-{1-[(4,4-difluorocyclohexyl)methyl]-3-(4-fluorophenyl)-1H-pyrazol-4-yl}-6-phenylfuro[2,3-d]pyrimidine]
 | 0.61 | 1510 | 69.8 | 92.3 | CN1CCC(n2cc(-c3ncnc4oc(-c5ccccc5)cc34)c(-c3ccc(F)cc3)n2)C1=O (centres unmarked) [Example 148, 3-[3-(4-Fluorophenyl)-4-(6-phenylfuro[2,3-d]pyrimidin-4-yl)-1H-pyrazol-1-yl]-1-methylpyrrolidin-2-one]
 | 0.06 | 1810 | 7.74 | 26.6 | O=S1(=O)CCC(n2cc(-c3ncnc4[nH]c(-c5ccccc5)nc34)c(-c3ccc(F)cc3)n2)C1 (centres unmarked) [Example 171, 3-[3-(4-fluorophenyl)-4-(8-phenyl-9H-purin-6-yl)-1H-pyrazol-1-yl]-1λ6-thiolane-1,1-dione]

Source: patent publication US20250034159A1, “INHIBITORS OF EPIDERMAL GROWTH FACTOR RECEPTOR” (ORIC Pharmaceuticals, Inc., priority 2021, published 2025)
